Measured values published in US10544136B2, “Modulators of sphingosine phosphate receptors” (The Scripps Research Institute, priority 2008, dated 2020).
pEC50: −log10 of the molar value.

Target: S1P1 (Homo sapiens (Human), UniProt P21453)
Assay: S1P1 agonist assay (Ec50 S1P1Ag)
Assay type: cell-based
Conditions: not given
Text: The exact dosage will depend upon the activity of the compound, mode of administration, on the therapy desired, form in which administered, the subject to be treated and the body weight of the subject to be treated, and the preference and experience of the physician or veterinarian in charge. S1P1 agonist bioactivity of the compounds of the invention can be determined by use of an in vitro assay system which measures the activation of S1P1, which can be expressed as EC50 values, as are well known in the art inhibitors of the invention can be determined by the method described in the Examples.

S1P1, sequence (P21453 whole entry): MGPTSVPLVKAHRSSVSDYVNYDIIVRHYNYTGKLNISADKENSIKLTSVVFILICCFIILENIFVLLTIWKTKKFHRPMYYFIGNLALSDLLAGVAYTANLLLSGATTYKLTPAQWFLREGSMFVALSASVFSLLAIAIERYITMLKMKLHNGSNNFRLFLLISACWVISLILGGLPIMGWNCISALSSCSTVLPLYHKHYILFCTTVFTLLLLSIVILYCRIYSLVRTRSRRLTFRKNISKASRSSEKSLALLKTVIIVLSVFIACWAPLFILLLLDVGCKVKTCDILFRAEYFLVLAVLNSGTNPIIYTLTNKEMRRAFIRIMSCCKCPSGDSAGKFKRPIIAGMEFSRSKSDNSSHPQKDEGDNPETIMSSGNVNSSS

Structure (SMILES)	pEC50
CCOc1ccc(-c2nc(-c3ccnc(CNC(C)(C)CO)c3)no2)cc1OCC [Compound 218]	6.88
CCC(c1ccccc1)c1nc(-c2ccncc2)no1 (stereo not shown) [Compound 109]	5.82
CCCCc1ccc(-c2nc(-c3ccncc3)no2)cc1 [Compound 51]	6.07
CCOc1ccc(-c2nc(-c3cccc4c3CCC4N3CC[C@@H](O)C3)no2)cc1OCC (stereo partly shown) [Compound 250]	8.21
CC(C)Oc1ccc(-c2nc(-c3cccc4c3CCC4NCCO)no2)cc1C(F)(F)F (stereo not shown) [Compound 263, 2-(4-(5-(4-isopropoxy-3-(trifluoromethyl)phenyl)-1,2,4-oxadiazol-3-yl)-2,3-dihydro-1H-inden-1-ylamino)ethanol]	8.00
COc1cc(-c2noc(-c3ccnnc3)n2)ccc1C [Compound 41]	5.11
CCOc1cccc(-c2nc(-c3ccncc3C)no2)c1 [Compound 64]	6.64
COc1cc(-c2noc(-c3cc(Cl)nc(Cl)c3)n2)ccc1C [Compound 45]	5.83
COc1cc(-c2noc(-c3ccc(C#N)c(C)c3)n2)ccc1C [Compound 46]	6.26
COc1cc(-c2noc(-c3cc(C)nc(Cl)c3)n2)ccc1C [Compound 28]	6.32
CCOc1ccc(-c2nc(-c3ccc4ccccc4c3)no2)cc1OCC [Compound 212]	6.47
CCOc1ccc(-c2nc(-c3ccccn3)no2)cc1OCC [Compound 33]	6.94
CCOc1ccc(-c2nc(-c3cccc(CN(C)C)c3)no2)cc1OCC [Compound 78]	7.34
CC(C)Oc1ccc(-c2nc(-c3cccc4c3CCC4O)no2)cc1C(F)(F)F (stereo not shown) [Compound 259, 4-(5-(4-isopropoxy-3-(trifluoromethyl)phenyl)-1,2,4-oxadiazol-3-yl)-2,3-dihydro-1H-inden-1-ol]	> 9.30
CCOc1ccc(-c2nc(-c3cccc4c3CCN4CCO)no2)cc1OCC [Compound 234]	> 9.30
CCOc1ccc(-c2nnc(-c3ccncc3)o2)cc1OCC [Compound 89]	6.65
CCOc1ccc(-c2nc(-c3ccc(CO)c(C)c3)no2)cc1OCC [Compound 200]	6.98
NS(=O)(=O)c1ccc(-c2noc(-c3cc(Cl)nc(Cl)c3)n2)cc1 [Compound 22]	5.99
Cc1ccc(-c2nc(-c3ccnc(N)c3)no2)cc1C(F)(F)F [Compound 69]	6.71
Nc1cc(-c2nc(-c3ccc(S(N)(=O)=O)cc3)no2)ccn1 [Compound 18]	6.40
COc1cc(-c2noc(-c3ccnc(Cl)c3)n2)ccc1C [Compound 29]	6.24
COc1cc(-c2nc(-c3cncc(C)c3)no2)ccc1C [Compound 74]	6.22
COc1cc(-c2nc(-c3ccc(C)c(OC)c3)no2)ccn1 [Compound 40]	6.21
c1ccc(Cc2nc(-c3ccncc3)no2)cc1 [Compound 105]	5.08

Structure (SMILES)	pEC50
CCOc1ccc(-c2nc(-c3ccc(N4CCN(C)CC4)cc3C)no2)cc1OCC [Compound 100]	7.06
c1cc(-c2noc(-c3ccc(C4CCCCC4)cc3)n2)ccn1 [Compound 56]	7.08
CCOc1ccc(-c2nc(-c3cccc4c3CCC4O)no2)cc1C(F)(F)F (stereo not shown) [Compound 260, 4-(5-(4-ethoxy-3-(trifluoromethyl)phenyl)-1,2,4-oxadiazol-3-yl)-2,3-dihydro-1H-inden-1-ol]	> 9.30
CCOc1ccc(-c2ncc(-c3ccncc3)o2)cc1OCC [Compound 268]	7.97
CCOc1ccc(-c2nc(-c3cccc(C)c3C)no2)cc1OCC [Compound 166]	7.90
CCOc1ccc(-c2nc(-c3ccc4[nH]cc(CN(C)CCO)c4c3)no2)cc1OCC [Compound 240]	5.51
CCOc1cccc(-c2nc(-c3ccncc3)no2)c1 [Compound 38]	6.03
CCOc1ccc(-c2nc(-c3ccc(CN(C)C)cc3)no2)cc1OCC [Compound 81]	6.91
COc1cc(-c2noc(-c3cc(CC(C)C)no3)n2)ccc1C [Compound 30]	5.86
CCOc1ccc(-c2nc(-c3cccc4[nH]cc(CN(C)CCO)c34)no2)cc1OCC [Compound 221]	5.85
COc1cc(OC)c(-c2nc(-c3ccncc3)no2)cc1OC [Compound 11]	5.19
CCOc1ccc(-c2nc(-c3ccc(CN4C[C@H](O)C[C@H]4C(=O)N(C)C)cc3C)no2)cc1OCC [Compound 210]	6.79
CCOc1ccc(-c2nc(-c3ccnc(C(=O)NCCO)c3)no2)cc1OCC [Compound 242]	7.58
CCOc1ccc(-c2nc(-c3cccc4[nH]cc(CN5CC[C@H](O)C5)c34)no2)cc1OCC [Compound 230]	6.52
CCOc1ccc(-c2nc(-c3cccc4c3CCC4NCCO)no2)cc1C(F)(F)F (stereo not shown) [Compound 264, 2-(4-(5-(4-ethoxy-3-(trifluoromethyl)phenyl)-1,2,4-oxadiazol-3-yl)-2,3-dihydro-1H-inden-1-ylamino)ethanol]	8.10
CCOc1ccc(-c2nc(-c3nccc4ccccc34)no2)cc1OCC [Compound 219]	7.89
COc1cc(-c2nc(-c3cccnc3)no2)ccc1C [Compound 75]	6.56
CCOc1ccc(-c2nc(-c3ccc(CN4CCCC4)cc3C)no2)cc1OCC [Compound 125]	6.77
CCOc1ccc(-c2nc(-c3cccc4c3CCC4NCCN(CC)CC)no2)cc1OCC (stereo not shown) [Compound 243]	9.15
CCOc1ccc(-c2nc(-c3cccc4c3CCC4O)no2)cc1C#N (stereo not shown) [Compound 262, 2-ethoxy-5-(3-(1-hydroxy-2,3-dihydro-1H-inden-4-yl)-1,2,4-oxadiazol-5-yl)benzonitrile]	> 9.30
CCOc1ccc(-c2nc(-c3ccc4c(c3)CCN4CCCO)no2)cc1OCC [Compound 258]	9.00
CCOc1ccc(-c2nc(-c3cccc4c3CCC4O)no2)cc1OCC (stereo not shown) [Compound 215, 4-(5-(3,4-diethoxyphenyl)-1,2,4-oxadiazol-3-yl)-2,3-dihydro-1H-inden-1-ol]	10.00
FC(F)(F)c1cc(-c2nc(-c3cccnc3)no2)ccc1-c1ccccc1 [Compound 63]	6.89
CCOc1ccc(-c2nc(-c3ccc4occc4c3)no2)cc1OCC [Compound 253]	7.58

Structure (SMILES)	pEC50
CCOc1ccc(-c2nc(-c3cccc4[nH]cc(CNC)c34)no2)cc1OCC [Compound 233]	6.24
COc1cc(-c2nc(-c3ccncc3)no2)ccc1C [Compound 39]	6.38
CCOc1ccc(-c2nc(-c3ccnc(CN4CC[C@@H](O)C4)c3)no2)cc1OCC [Compound 235]	7.09
CCOc1ccc(-c2nc(-c3cccc4[nH]cc(CNCCN(C)C)c34)no2)cc1OCC [Compound 222]	6.55
CCOc1cccc(-c2nc(-c3ccnc(N)c3)no2)c1 [Compound 65]	6.50
CCOc1ccc(-c2nc(-c3ccc(Br)c(C)c3)no2)cc1OCC [Compound 185]	6.61
CCOc1ccc(-c2nc(-c3ccc(CN4CCCC4)cc3)no2)cc1OCC [Compound 80]	7.06
CCOc1ccc(-c2nc(-c3ccc(CNCCO)cc3C)no2)cc1OCC [Compound 252]	8.00
CCOc1ccc(-c2nc(-c3ccnc(CNCCN(CC)CC)c3)no2)cc1OCC [Compound 226]	8.57
CCOc1ccc(-c2nc(-c3ccc(CCN4CCCC4)cc3)no2)cc1OCC [Compound 191]	7.27
COc1cc(-c2noc(-c3cccnc3)n2)ccc1C [Compound 24]	5.74
CCOc1ccc(-c2nc(-c3cccc4[nH]cc(CNCCN(CC)CC)c34)no2)cc1OCC [Compound 204]	7.49
CCOc1ccc(-c2nc(-c3cccc4[nH]cc(CNC(C)(C)CO)c34)no2)cc1OCC [Compound 213]	6.20
CCOc1ccc(-c2nc(-c3ccc4[nH]cc(CNCCO)c4c3)no2)cc1OCC [Compound 239]	6.06
CCOc1ccc(-c2nc(-c3cccc4c3CCN4CCN(CC)CC)no2)cc1OCC [Compound 232]	7.03
CCOc1ccc(-c2nc(-c3ccc(CN4CCCC4)c(C)c3)no2)cc1OCC [Compound 202]	7.45
Cc1cnccc1-c1noc(-c2ccc(C)c(C(F)(F)F)c2)n1 [Compound 68]	7.42
CCOc1ccc(-c2nc(-c3cccc(Br)c3C)no2)cc1OCC [Compound 121]	6.19
CCOc1ccc(-c2cc(-c3ccncc3)no2)cc1OCC [Compound 269]	6.95
CCOc1ccc(-c2nc(-c3ccnc(C(=O)O)c3)no2)cc1OCC [Compound 241]	7.02
CC(C)Oc1ccc(-c2ncc(-c3cccc4c3CCC4O)o2)cc1C#N (stereo not shown) [Compound 270]	8.60
CCOc1ccc(-c2nc(-c3cccc4c3CCC4=O)no2)cc1OCC [Compound 227]	7.67

Same assay, conditions: unit μM/uM

Structure (SMILES)	EC50 [µM]
CCOc1ccc(-c2nc(-c3cccc(OC(F)(F)F)c3)no2)cc1OCC [Compound 205]	10
COc1cc(-c2nc(-c3ccc(C(F)(F)F)cc3)no2)ccn1 [Compound 1]	466
FC(F)(F)c1ccc(-c2noc(-c3cccnc3)n2)cc1 [Compound 2]	6.5
FC(F)(F)c1ccc(-c2noc(-c3ccnnc3)n2)cc1 [Compound 4]	7.8
CCOc1ccc(-c2nc(-c3ccc4[nH]cc(CN5CCCC5)c4c3)no2)cc1OCC [Compound 223]	10
[O-][n+]1ccc(-c2nc(-c3ccc(C(F)(F)F)cc3)no2)cc1 [Compound 3]	5.9
COc1cc(-c2noc(-c3cc4ccccc4s3)n2)ccc1C [Compound 47]	31.8
CC(C)(C)c1cc(-c2nc(-c3ccc(S(N)(=O)=O)cc3)no2)cc(C(C)(C)C)c1 [Compound 14]	12.3
CCOc1cccc(-c2nc(-c3cccnc3)no2)c1 [Compound 67]	95.5
Cc1cc(-c2noc(-c3ccc(C)c(C(F)(F)F)c3)n2)ccn1 [Compound 70]	7.08
COc1ccc(-c2nc(-c3ccccc3)no2)cc1 [Compound 8]	73
CC(C)COc1ccc(-c2nc(-c3ccncc3)no2)cc1 [Compound 9]	68.4
